Laboratory results reported in ChEMBL document CHEMBL5375953, “Discovery of Biaryl Amide Derivatives as Potent, Selective, and Orally Bioavailable RORγt Agonists for Cancer Immunotherapy” (J Med Chem, 2023).
pEC50: −log10 of the molar value.

Experiments:
[1] = Metabolic Stability in mouse liver microsome assessed as half life at […] measured upto 60 mins by HPLC-MS/MS analysis; type: ADME; details: liver microsomes
[2] = Metabolic Stability in human liver microsome assessed as microsomal intrinsic clearance at […] measured upto 60 mins by HPLC-MS/MS analysis; type: ADME; details: liver microsomes, read-out: CLH
[3] = Metabolic Stability in dog liver microsome assessed as microsomal intrinsic clearance at […] measured upto 60 mins by HPLC-MS/MS analysis; type: ADME, Canis lupus familiaris; details: liver microsomes, read-out: CLH
[4] = Metabolic Stability in cynomolgus monkey liver microsome assessed as microsomal intrinsic clearance at […] measured upto 60 mins by HPLC-MS/MS analysis; type: ADME, Macaca fascicularis; details: liver microsomes, read-out: CLH
[5] = Metabolic Stability in mouse liver microsome assessed as intrinsic clearance at […] measured upto 60 mins by HPLC-MS/MS analysis; type: ADME; details: microsomes, 1 h
[6] = Metabolic Stability in cynomolgus monkey liver microsome assessed as intrinsic clearance at […] measured upto 60 mins by HPLC-MS/MS analysis; type: ADME, Macaca fascicularis; details: microsomes, 1 h
[7] = biological target: T1, Nuclear receptor ROR-alpha (Homo sapiens, UniProt P35398); assay: Agonist activity at human Gal4-fused RORalpha expressed in HEK293T cells assessed as luciferase activity incubated for 16 to 20 hrs by Luciferase reporter gene assay; type: cell-based
T1 sequence (P35398 whole entry): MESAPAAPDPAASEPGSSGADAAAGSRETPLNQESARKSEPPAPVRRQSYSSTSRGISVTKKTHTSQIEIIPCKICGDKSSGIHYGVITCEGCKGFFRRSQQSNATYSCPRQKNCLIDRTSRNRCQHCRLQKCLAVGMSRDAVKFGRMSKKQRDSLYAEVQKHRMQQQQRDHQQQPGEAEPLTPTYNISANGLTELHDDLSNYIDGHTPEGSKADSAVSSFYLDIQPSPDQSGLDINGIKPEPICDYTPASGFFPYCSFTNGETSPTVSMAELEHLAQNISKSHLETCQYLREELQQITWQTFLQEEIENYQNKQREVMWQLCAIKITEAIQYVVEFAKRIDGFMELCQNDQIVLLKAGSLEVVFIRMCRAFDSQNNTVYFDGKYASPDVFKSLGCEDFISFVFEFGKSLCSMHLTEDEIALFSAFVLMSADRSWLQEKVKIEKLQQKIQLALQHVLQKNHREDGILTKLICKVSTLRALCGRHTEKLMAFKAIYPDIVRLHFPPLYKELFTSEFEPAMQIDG

[8] = biological target: T2, Nuclear receptor ROR-beta (Homo sapiens, UniProt Q92753); assay: Agonist activity at human Gal4-fused RORbeta expressed in HEK293T cells assessed as luciferase activity incubated for 16 to 20 hrs by Luciferase reporter gene assay; type: cell-based
T2 sequence (Q92753 whole entry): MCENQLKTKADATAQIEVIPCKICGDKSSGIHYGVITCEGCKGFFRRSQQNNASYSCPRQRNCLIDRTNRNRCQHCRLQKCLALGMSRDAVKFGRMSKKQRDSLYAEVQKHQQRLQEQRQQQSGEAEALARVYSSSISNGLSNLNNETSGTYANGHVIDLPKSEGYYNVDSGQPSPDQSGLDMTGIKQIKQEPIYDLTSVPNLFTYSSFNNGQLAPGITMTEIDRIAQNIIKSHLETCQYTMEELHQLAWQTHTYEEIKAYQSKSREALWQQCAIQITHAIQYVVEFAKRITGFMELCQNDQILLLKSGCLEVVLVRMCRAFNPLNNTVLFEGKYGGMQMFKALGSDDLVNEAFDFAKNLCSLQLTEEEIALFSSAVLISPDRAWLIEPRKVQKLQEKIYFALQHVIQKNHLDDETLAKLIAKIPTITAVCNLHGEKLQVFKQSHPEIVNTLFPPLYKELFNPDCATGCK

[9] = Volume of distribution at steady state in CD-1 mouse at 1 mg/kg,iv administration measured after 24 hrs by LC-MS/MS analysis; type: ADME, organism-based; details: in vivo
[10] = Half life in CD-1 mouse at 1 mg/kg,iv administration measured after 24 hrs by LC-MS/MS analysis; type: ADME, organism-based; details: in vivo
[11] = Cmax in CD-1 mouse at 5 mg/kg,po administration measured after 24 hrs by LC-MS/MS analysis; type: ADME, organism-based; parameters: dose 5 mg/kg, time 24 hrs, route po; details: in vivo
[12] = AUC(infinity) in CD-1 mouse at 5 mg/kg,po administration measured after 24 hrs by LC-MS/MS analysis; type: ADME, organism-based; parameters: dose 5 mg/kg, time 24 hrs, route po; details: in vivo
[13] = Oral bioavailability in CD-1 mouse at 5 mg/kg administration measured after 24 hrs by LC-MS/MS analysis; type: ADME, organism-based; details: in vivo
[14] = Clearance in rat at 1 mg/kg,iv administration measured after 24 hrs by LC-MS/MS analysis; type: ADME, organism-based; details: in vivo
[15] = AUC(infinity) in rat at 1 mg/kg,iv administration measured after 24 hrs by LC-MS/MS analysis; type: ADME, organism-based; parameters: dose 1 mg/kg, time 24 hrs, route iv; details: in vivo
[16] = AUC(infinity) in rat at 5 mg/kg,po administration measured after 24 hrs by LC-MS/MS analysis; type: ADME, organism-based; parameters: time 24 hrs, dose 5 mg/kg, route po; details: in vivo
[17] = AUC(infinity) in dog at 1 mg/kg,iv administration measured after 24 hrs by LC-MS/MS analysis; type: ADME, organism-based, Canis lupus familiaris; parameters: time 24 hrs, dose 1 mg/kg, route iv; details: in vivo
[18] = Cmax in dog at 2 mg/kg,po administration measured after 24 hrs by LC-MS/MS analysis; type: ADME, organism-based, Canis lupus familiaris; parameters: dose 2 mg/kg, time 24 hrs, route po; details: in vivo
[19] = Oral bioavailability in dog at 2 mg/kg administration measured after 24 hrs by LC-MS/MS analysis; type: ADME, organism-based, Canis lupus familiaris; details: in vivo
[20] = Genotoxicity in Salmonella typhimurium TA98 by mini-Ames mutagenicity test; type: toxicity; details: salmonella enterica subsp. enterica serovar typhimurium
[21] = Genotoxicity in Salmonella typhimurium TA100 by mini-Ames mutagenicity test; type: toxicity; details: salmonella enterica subsp. enterica serovar typhimurium
B16-F10 = assay: Antitumor activity against mouse B16-F10 cells xenografted in C57BL/6 mouse assessed as tumor growth inhibition at 25 mg/kg,ip administrated on day 7 for 8 days relative to control; type: functional; details: B16-F10, 192 h, time 8 day, read-out: TGI
[22] = Toxicity against C57BL/6 mouse xenografted with mouse B16-F10 cells assessed as body weight loss at 25 to 100 mg/kg,ip administrated on day 7 for 8 days; type: organism-based; details: in vivo, 192 h, dose 25-100 mg/kg, time 8 day
[23] = Toxicity against C57BL/6 mouse xenografted with mouse B16-F10 cells assessed as animal death at 25 to 100 mg/kg,ip administrated on day 7 for 8 days; type: organism-based; details: in vivo, 192 h, dose 25-100 mg/kg, time 8 day
[24] = Antitumor activity against mouse Lung adenocarcinoma cell line xenografted in C57BL/6 mouse assessed as tumor growth inhibition at 50 mg/kg,ip administrated on day 7 for 12 days relative to control; type: functional; details: 288 h, time 12 day, read-out: TGI
[25] = Antitumor activity against mouse Lung adenocarcinoma cell line xenografted in C57BL/6 mouse assessed as tumor growth inhibition at 100 mg/kg,po administrated on day 7 for 12 days relative to control; type: functional; details: 288 h, time 12 day, read-out: TGI
[26] = Toxicity against C57BL/6 mouse xenografted with mouse Lung adenocarcinoma cell line assessed as change in body weight at 50 mg/kg,ip administrated on day 7 for 12 days; type: organism-based; details: in vivo, 288 h, time 12 day
[27] = Toxicity against C57BL/6 mouse xenografted with mouse Lung adenocarcinoma cell line assessed as change in body weight at 100 mg/kg,po administrated on day 7 for 12 days; type: organism-based; details: in vivo, 288 h, time 12 day

`CCS(=O)(=O)c1ccc(CC(=O)Nc2cc(Cl)c(-c3ccc(OC(C)C)c(C#N)c3)c(Cl)c2)cc1` showed a half-life [1] of over 2.42 h, a microsomal CLint [2] of under 9.6 µL/min/mg and a microsomal CLint [3] of under 9.6 µL/min/mg. The microsomal CLint [4] was 44.6 µL/min/mg, the CLH [5] was under 38 µL/min/mg and the CLH [6] was 60.2 µL/min/mg. For the same molecule, the pEC50 [7] was under 5.00, the pEC50 [8] was under 5.00 and the Vdss [9] was 2 L/kg. For the same molecule, the t1/2 [10] was 6.3 h, the Cmax [11] was 1810 ng/mL and the AUC(0-inf) [12] was 20600 ng·h/mL. For the same molecule, the bioavailability [13] was 90.3%, the clearance [14] was 3.2 mL/min/kg and the AUC(0-inf) [15] was 5410 ng·h/mL. It also gave an AUC(0-inf) [16] of 10600 ng·h/mL, an AUC(0-inf) [17] of 27000 ng·h/mL and a Cmax [18] of 518 ng/mL. For the same molecule, the bioavailability [19] was 52.2%, the Activity [20] was “Non-Toxic” and the Activity [21] was “Non-Toxic”. For the same molecule, the inhibition in vivo at 25 mg/kg (B16-F10) was 51.6%, the Activity [22] was “Non-Toxic” and the Activity [23] was “Non-Toxic”. The inhibition in vivo at 50 mg/kg [24] was 75.6%, the inhibition in vivo at 100 mg/kg [25] was 49.8% and the Activity [26] was “Non-Toxic”. The Activity [27] was “Non-Toxic”.
